Here are results for 32 compounds from article PMC7587356, “High-Throughput Screening for Inhibitors of the SARS-CoV-2 Protease Using a FRET-Biosensor” (Molecules, 2020).

Structures are written as SMILES. Structures can show the parent of a compound that is named as a salt. Where two headings read alike, the source gives them in different places. Peptide text beside a SMILES is read from it. * marks the point of attachment. Cbz = O=C(OCc1ccccc1)*

The assay addresses SARS-CoV-2 3CLpro (Severe acute respiratory syndrome coronavirus 2, UniProt P0DTD1). In words: biochemical. It counts as biochemical. The arrangement: Replicate_1 / Replicate_2 / mean / mean (LOPAC_screen_w_protease): unit not given here. As to conditions: for inhibition at 5 µM: 4 h.
Where [1] appears, read: LOPAC1280 primary screen with protease, 5 µM compound, mean of the two replicates.
[2] abbreviates: LOPAC1280 primary screen with protease, 5 µM compound, replicate 1.
Setting [3] is: LOPAC1280 primary screen with protease, 5 µM compound, replicate 2.
[4] abbreviates: sheet LOPAC_screen_w_protease, LOPAC1280 primary screen with protease, 5 µM compound, mean of the two replicates, read-out: mean.
The mark [5] stands for this setting: sheet LOPAC_screen_w_protease, LOPAC1280 primary screen with protease, 5 µM compound, replicate 1, read-out: Replicate_1.
Where [6] appears, read: sheet LOPAC_screen_w_protease, LOPAC1280 primary screen with protease, 5 µM compound, replicate 2, read-out: Replicate_2.
Where [7] appears, read: sheet LOPAC_screen_w_protease, LOPAC1280 primary screen at 5 µM, with protease, mean of the two replicates.
Setting [8] is: sheet LOPAC_screen_w_protease, LOPAC1280 primary screen at 5 µM, with protease, replicate 1.
[9] abbreviates: sheet LOPAC_screen_w_protease, LOPAC1280 primary screen at 5 µM, with protease, replicate 2.
[10] abbreviates: sheet LOPAC_screen_w_protease, primary screen with protease, 5 µM, mean of two replicates, read-out: mean.
[11] abbreviates: sheet LOPAC_screen_w_protease, primary screen with protease, 5 µM, replicate 1, read-out: Replicate_1.
Where [12] appears, read: sheet LOPAC_screen_w_protease, primary screen with protease, 5 µM, replicate 2, read-out: Replicate_2.
Where [13] appears, read: sheet LOPAC_screen_w_protease, primary screen with protease, mean of two replicates, read-out: mean.
Where [14] appears, read: sheet LOPAC_screen_w_protease, primary screen with protease, replicate 1, read-out: Replicate_1.
[15] abbreviates: sheet LOPAC_screen_w_protease, primary screen with protease, replicate 2, read-out: Replicate_2.
The mark [16] stands for this setting: sheet LOPAC_screen_w_protease, primary screen of LOPAC1280 at 5 µM with protease, mean of the two replicates, read-out: mean.
Setting [17] is: sheet LOPAC_screen_w_protease, primary screen of LOPAC1280 at 5 µM with protease, replicate 1, read-out: Replicate_1.
The mark [18] stands for this setting: sheet LOPAC_screen_w_protease, primary screen of LOPAC1280 at 5 µM with protease, replicate 2, read-out: Replicate_2.
[19] abbreviates: sheet LOPAC_screen_w_protease, primary screen of LOPAC1280 at 5 µM with protease, mean of the two replicates.
[20] abbreviates: sheet LOPAC_screen_w_protease, primary screen of LOPAC1280 at 5 µM with protease, replicate 1.
Where [21] appears, read: sheet LOPAC_screen_w_protease, primary screen of LOPAC1280 at 5 µM with protease, replicate 2.
[22] abbreviates: sheet LOPAC_screen_w_protease, LOPAC1280 primary screen with protease, 5 µM compound, mean of the two replicates.
Setting [23] is: sheet LOPAC_screen_w_protease, LOPAC1280 primary screen with protease, 5 µM compound, replicate 1.
[24] abbreviates: sheet LOPAC_screen_w_protease, LOPAC1280 primary screen with protease, 5 µM compound, replicate 2.

Take `CC[N+](C)(CC)CC(=O)Nc1c(C)cccc1C.[Cl-]` [Lidocaine N-methyl hydrochloride]: the “mean (LOPAC_screen_w_protease)” value under setting [1] amounted to 2.035. For the same compound, the “Replicate_1 (LOPAC_screen_w_protease)” value under setting [2] is listed as 4.235. Also, the “Replicate_2 (LOPAC_screen_w_protease)” value under setting [3] is given as -0.1654.
Turning to `O=C1N(c2ccccc2)c2ccccc2C1(Cc1ccncc1)Cc1ccncc1` [Linopirdine], the inhibition at 5 µM by setting is: under setting [4], 4.8%; under setting [5], 4.31%; under setting [6], 5.29%.
Regarding `[Cl-].[Li+]` [Lithium Chloride], the mean under setting [7] stood at 0.7152. The Replicate_1 under setting [8] is 0.8231. The Replicate_2 under setting [9] is 0.6073.
Regarding `O=C(O)c1nn(Cc2ccc(Cl)cc2Cl)c2ccccc12` [Lonidamine], the inhibition at 5 µM worked out at 0.331% under setting [10], 0.572% under setting [11] and 0.0889% under setting [12].
In the case of `CN(C)C(=O)C(CCN1CCC(O)(c2ccc(Cl)cc2)CC1)(c1ccccc1)c1ccccc1` [Loperamide hydrochloride], the inhibition at 5 µM worked out at 2.22% under setting [13], 4.2% under setting [14] and 0.237% under setting [15].
As for `CCOC(=O)N1CCC(=C2c3ccc(Cl)cc3CCc3cccnc32)CC1` [Loratadine], the inhibition at 5 µM by setting is: (sheet LOPAC_screen_w_protease, LOPAC1280 primary screen at 5 µM, with protease, mean of the two replicates, read-out: mean) 0.729%; (sheet LOPAC_screen_w_protease, LOPAC1280 primary screen at 5 µM, with protease, replicate 1, read-out: Replicate_1) -0.189%; (sheet LOPAC_screen_w_protease, LOPAC1280 primary screen at 5 µM, with protease, replicate 2, read-out: Replicate_2) 1.65%.
As to `CCCCCN(CCCCC)C(=O)C(CCC(=O)O)NC(=O)c1ccc(Cl)c(Cl)c1` (centres unmarked) [Lorglumide sodium], the inhibition at 5 µM was determined as 3.65% under setting [16], 2.9% under setting [17] and 4.4% under setting [18].
Regarding `CN1CCN(C2=Nc3ccccc3Oc3ccc(Cl)cc32)CC1` [Loxapine succinate], the inhibition at 5 µM was -0.686% under setting [10], -0.577% under setting [11] and -0.795% under setting [12].
In turn, `O=C(O)/C(=C/c1c(C(=O)O)[nH]c2cc(Cl)cc(Cl)c12)c1ccccc1` [MDL 105,519] returned a Replicate_1 of 2.708, a Replicate_2 of 5.657 and a mean of 4.183.
For the compound `CC(C)[C@H](NC(=O)OCc1ccccc1)C(=O)N[C@H](C=O)Cc1ccccc1` [MDL 28170] (Cbz-Val-Phe-aldehyde), the inhibition at 5 µM was 0.281% (read-out: Replicate_1 (LOPAC_screen_w_protease)) and 3.52% (read-out: Replicate_2 (LOPAC_screen_w_protease)).
For the compound `CC[N+](CC)(CC)CCOc1ccc(/C=C/c2ccccc2)cc1` [MG 624], the inhibition at 5 µM amounted to 11.8% (sheet LOPAC_screen_w_protease, primary screen at 5 µM, mean of two replicates, read-out: mean (LOPAC screen with protease)); 10.3% (sheet LOPAC_screen_w_protease, primary screen at 5 µM, replicate 1, read-out: Replicate_1 (LOPAC screen with protease)); 13.3% (sheet LOPAC_screen_w_protease, primary screen at 5 µM, replicate 2, read-out: Replicate_2 (LOPAC screen with protease)).
In turn, `C1CNCCN1.COc1cc(C(O)CO)ccc1O.COc1cc(C(O)CO)ccc1O` (centres unmarked) [MHPG piperazine] gave a Replicate_1 of 4.5396, a Replicate_2 of 3.9909 and a mean of 4.265.
The compound `COc1cc(C(O)CO)ccc1OS(=O)(=O)[O-].[K+]` (centres unmarked) [MHPG sulfate potassium] gave a mean under setting [7] of 0.6725. Besides, under setting [8], the Replicate_1 is on record as 2.348. Also, the Replicate_2 under setting [9] is on record as -1.003.
In turn, `CCCCCCCCCCCCCCCCOCC(COCC(F)(F)F)OP(=O)(O)OC` (centres unmarked) [MJ33] gave a Replicate_1 of 1.4444, a Replicate_2 of -0.2702 and a mean of 0.5871.
`CC(C)c1ccc2c(c1)c(SC(C)(C)C)c(CC(C)(C)C(=O)O)n2Cc1ccc(Cl)cc1` [MK-886] gave a mean under setting [19] of 3.5784. The Replicate_1 under setting [20] is 4.4392. Moreover, under setting [21], the Replicate_2 is on record as 2.7176.
On to `CN1CC[C@]2(CCN3CCc4c(oc5ccccc45)[C@@H]3C2)N(C)C1=O` [MK-912], for which the “mean (LOPAC_screen_w_protease)” value (LOPAC1280 primary screen with protease, 5 µM compound, mean of two replicates) was determined as 1.637. Besides, the “Replicate_1 (LOPAC_screen_w_protease)” value under setting [2] was found to be 1.746. Under setting [3], the “Replicate_2 (LOPAC_screen_w_protease)” value is 1.529.
For `Cl.O=S(=O)(c1cccc2c(I)cccc12)N1CCCNCC1` [ML-7], the Replicate_1 was found to be 2.299, the Replicate_2 is on record as 4.928 and the mean is reported as 3.614.
Take `Cl.O=S(=O)(c1cccc2c(Cl)cccc12)N1CCCNCC1` [ML-9]: the Replicate_1 turned out to be 1.4227, the Replicate_2 came out at 4.79 and the mean is on record as 3.1064.
In turn, `CCCOC(=O)c1c(-c2ccccc2)nc(CC)c(C(=O)SCC)c1CCC` [MRS 1523] displayed a mean (sheet LOPAC_screen_w_protease, primary screen with protease, compound at 5 µM, mean of two replicates) of 2.972. Where the note is “sheet LOPAC_screen_w_protease, primary screen with protease, compound at 5 µM, replicate 1”, this compound returned a Replicate_1 of 3.943. Besides, the Replicate_2 (sheet LOPAC_screen_w_protease, primary screen with protease, compound at 5 µM, replicate 2) was 2.002.
Regarding `CCCn1c(=O)c2[nH]c(-c3ccc(OCC(=O)Nc4ccc(C#N)cc4)cc3)nc2n(CCC)c1=O` [MRS 1754], the inhibition at 5 µM amounted to 3.78% under setting [16], 1.48% under setting [17] and 6.08% under setting [18].
Turning to `C#CCN1C(C)=C(C(=O)OC)C(c2cccc([N+](=O)[O-])c2)C(C(=O)OCC)=C1C` (centres unmarked) [MRS 1845], the mean under setting [22] is reported as 4.379. This compound also registered a Replicate_1 under setting [23] of 3.994. The compound further returned a Replicate_2 under setting [24] of 4.765.
For `Cc1nc(N=Nc2ccc(C(=O)O)cc2)c(COP(=O)(O)O)c(C=O)c1O` [MRS 2159], the “mean (LOPAC_screen_w_protease)” value under setting [1] is reported as 1.803. Also, under setting [2], the “Replicate_1 (LOPAC_screen_w_protease)” value came to 1.948. In addition, under setting [3], the “Replicate_2 (LOPAC_screen_w_protease)” value is on record as 1.658.
Take `CNc1ncnc2c1ncn2[C@H]1C[C@H](OP(=O)(O)O)[C@@H](COP(=O)(O)O)O1` [MRS 2179]: under setting [22], the mean is recorded as 4.143. Also, the Replicate_1 under setting [23] is reported as 4.368. Further, the Replicate_2 under setting [24] came out at 3.917.
With `CNCCCC12CCC(c3ccccc31)c1ccccc12` [Maprotiline hydrochloride], the inhibition at 5 µM runs as follows: (read-out: Replicate_1) 4%; (read-out: Replicate_2) 5.55%; (read-out: mean) 4.77%.
`C[N+](C)(C)CC#CCOC(=O)Nc1cccc(Cl)c1.[Cl-]` [McN-A-343]: the mean under setting [19] was 3.792. The compound also yielded a Replicate_1 under setting [20] of 2.713. The Replicate_2 under setting [21] turned out to be 4.871.
Regarding `CNC1(C)C2CCC(C2)C1(C)C` (centres unmarked) [Mecamylamine hydrochloride], the inhibition at 5 µM reads like this: under setting [4], 4.7%; under setting [5], 5.3%; under setting [6], 4.09%.
With `Cc1ccc(Cl)c(Nc2ccccc2C(=O)O)c1Cl` [Meclofenamic acid sodium], the inhibition at 5 µM by setting is: (read-out: Replicate_1) 1.45%; (read-out: Replicate_2) 5.52%; (read-out: mean) 3.48%.
Turning to `COc1ccc2[nH]cc(CCNC(C)=O)c2c1` [Melatonin], the inhibition at 5 µM by setting is: under setting [13], 2.28%; under setting [14], 3.18%; under setting [15], 1.38%.
On to `CN1C[C@@H](NS(=O)(=O)N(C)C)C[C@@H]2c3cccc4c3c(cn4C)C[C@H]21` [Mesulergine hydrochloride], for which the inhibition at 5 µM runs as follows: under setting [4], 5.36%; under setting [5], 4.85%; under setting [6], 5.86%.
For the compound `S=C=Nc1cccc(C2(N3CCCCC3)CCCCC2)c1` [Metaphit methanesulfonate], the inhibition at 5 µM worked out at 5.96% under setting [4], 6.38% under setting [5] and 5.54% under setting [6].
Turning to `CC(C)NCC(O)c1cc(O)cc(O)c1.CC(C)NCC(O)c1cc(O)cc(O)c1.O=S(=O)(O)O` (centres unmarked) [Metaproterenol hemisulfate], under setting [22], the mean was 4.319. This compound also yielded a Replicate_1 under setting [23] of 2.0521. Also, the Replicate_2 under setting [24] is recorded as 6.586.
Consider `CN1C[C@H](CNC(=O)OCc2ccccc2)C[C@@H]2c3cccc4c3c(cn4C)C[C@H]21` [Metergoline], for which the inhibition at 5 µM by setting is: under setting [16], 4.08%; under setting [17], 2.56%; under setting [18], 5.6%.
